# Data: the NIST ThermoML archive (doi:10.1021/je700088n)
# ± gives the expanded uncertainty stated by the source.
# Columns and labels:
# [1] = Molar enthalpy of transition or fusion; settings: Crystal; DSC
# [2] = Crystal; for Normal melting temperature: DTA; for mass density: 298.1 K, 101.33 kPa, digital densimeter
Structure (SMILES),Molar enthalpy of transition or fusion [1],Normal melting temperature [2],mass density [2]
"Cc1ccc(C)c2ccccc12 [1,4-dimethylnaphthalene]",2.53 ± 0.0884 kcal/mol,6.00 ± 0.5 °C,–
"Cc1cccc2c(C)cccc12 [1,5-dimethylnaphthalene]",4.78 ± 0.143 kcal/mol,82.00 ± 0.5 °C,–
"Cc1ccc2c(C)cccc2c1 [1,6-dimethylnaphthalene]",2.03 ± 0.0741 kcal/mol,-16.20 ± 0.5 °C,–
"Cc1cccc2cccc(C)c12 [1,8-dimethylnaphthalene]",4.43 ± 0.134 kcal/mol,65.00 ± 0.5 °C,–
Cc1cccc2ccccc12 [1-methylnaphthalene],–,-30.9 ± 0.5 °C,–
"Cc1cc2ccccc2cc1C [2,3-dimethylnaphthalene]",5.73 ± 0.167 kcal/mol,104.00 ± 0.5 °C,1012 ± 10 kg/m3
"Cc1ccc2cc(C)ccc2c1 [2,6-dimethylnaphthalene]",6.05 ± 0.174 kcal/mol,112.00 ± 0.5 °C,1021 ± 10 kg/m3
"Cc1ccc2ccc(C)cc2c1 [2,7-dimethylnaphthalene]",5.31 ± 0.158 kcal/mol,97.00 ± 0.5 °C,1010 ± 10 kg/m3
Cc1ccc2ccccc2c1 [2-methylnaphthalene],–,34.70 ± 0.5 °C,–
